Target: HPK1 (MAP4K1) (Homo sapiens, UniProt Q92918)
Test: FRET Assay for HPK1 (MAP4K1): one step binding assay, displacement of labeled tracer
Details: for inhibition at 1 µM: 1 μM compound; for inhibition at 1 µM / inhibition at 10 µM: FRET ratio 665/620, percent of control; for inhibition at 10 µM: 10 μM compound; for IC50: dose response curve, nonlinear regression
In short: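 Percent inhibition at 1.0 and 10.0 μM and IC50 by nonlinear regression were derived from loss of FRET signal versus control. The signal runs from Eu-anti-GST antibody (4 nM) bound to 10 nM HPK1 kinase to Alexa Fluor 647 Kinase Tracer 222 (20 nM), added after a 15-min on-ice compound pre-incubation. Binding then proceeded 1 h at room temperature in HEPES pH 7.5 buffer with 10 mM MgCl2, 1 mM EGTA, 0.01% Brij-35 and 3% DMSO.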

HPK1 (MAP4K1), sequence (Q92918 whole entry): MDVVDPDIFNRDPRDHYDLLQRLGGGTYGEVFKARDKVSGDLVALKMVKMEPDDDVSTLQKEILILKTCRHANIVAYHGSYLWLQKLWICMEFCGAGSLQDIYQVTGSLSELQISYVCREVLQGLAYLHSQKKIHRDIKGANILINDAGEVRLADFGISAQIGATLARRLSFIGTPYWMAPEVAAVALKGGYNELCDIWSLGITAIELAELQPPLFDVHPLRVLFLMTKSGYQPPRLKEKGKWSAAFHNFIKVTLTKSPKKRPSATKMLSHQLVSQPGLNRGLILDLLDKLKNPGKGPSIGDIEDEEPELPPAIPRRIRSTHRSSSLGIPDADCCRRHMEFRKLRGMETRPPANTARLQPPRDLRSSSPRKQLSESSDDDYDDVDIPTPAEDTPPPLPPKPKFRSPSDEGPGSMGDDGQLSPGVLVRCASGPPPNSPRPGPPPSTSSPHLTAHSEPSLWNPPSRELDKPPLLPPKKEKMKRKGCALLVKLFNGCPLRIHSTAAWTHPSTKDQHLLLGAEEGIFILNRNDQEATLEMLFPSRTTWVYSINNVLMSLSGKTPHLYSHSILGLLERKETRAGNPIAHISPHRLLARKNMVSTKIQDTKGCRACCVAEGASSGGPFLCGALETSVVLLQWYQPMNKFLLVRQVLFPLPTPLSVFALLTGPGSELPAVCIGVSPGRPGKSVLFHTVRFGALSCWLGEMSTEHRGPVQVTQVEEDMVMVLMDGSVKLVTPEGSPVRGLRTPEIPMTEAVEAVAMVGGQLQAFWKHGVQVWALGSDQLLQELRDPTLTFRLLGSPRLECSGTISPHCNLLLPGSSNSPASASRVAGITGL

Row | SMILES | inhibition at 1 µM | inhibition at 10 µM | IC50
1 | C/C(NCCN1CCOCC1)=C1/C(=O)Nc2cnc(-c3cnccc3C)cc21 [Example 86, (Z)-5-(4-Methylpyridin-3-yl)-3-(1-((2-morpholinoethyl)amino)ethylidene)-1H-pyrrolo[2,3-c]pyridin-2(3H)-one] | 51.5% | 74% | > 500 nM
2 | C/C(Nc1cnn(CCN2CCOCC2)c1)=C1/C(=O)Nc2cnc(-c3cnccc3C)cc21 [Example 87, (Z)-5-(4-Methylpyridin-3-yl)-3-(1-((1-(2-morpholinoethyl)-1H-pyrazol-4-yl)amino)ethylidene)-1H-pyrrolo[2,3-c]pyridin-2(3H)-one] | 83.6% | 84.8% | < 50 nM
3 | C/C(Nc1cnn(C(C)(C)C#N)c1)=C1/C(=O)Nc2cnc(-c3c(C)noc3C)cc21 [Example 88, (Z)-2-(4-((1-(5-(3,5-Dimethylisoxazol-4-yl)-2-oxo-1H-pyrrolo[2,3-c]pyridin-3(2H)-ylidene)ethyl)amino)-1H-pyrazol-1-yl)-2-methylpropanenitrile] | 74.3% | 87.6% | 100 to 500 nM
4 | C/C(Nc1cnn(C(C)C)c1)=C1/C(=O)Nc2cnc(-c3cnccc3C)cc21 [Example 89, (Z)-3-(1-((1-Isopropyl-1H-pyrazol-4-yl)amino)ethylidene)-5-(4-methylpyridin-3-yl)-1H-pyrrolo[2,3-c]pyridin-2(3H)-one] | 77.3% | 76% | < 50 nM
5 | CC(=O)N1CCC(n2cc(N/C(C)=C3\C(=O)Nc4cnc(-c5cnccc5C)cc43)cn2)CC1 [Example 90, (Z)-3-(1-((1-(1-Acetylpiperidin-4-yl)-1H-pyrazol-4-yl)amino)ethylidene)-5-(4-methylpyridin-3-yl)-1H-pyrrolo[2,3-c]pyridin-2(3H)-one] | 72.7% | 75.6% | < 50 nM
6 | CC/C(Nc1cnn(C(C)(C)C#N)c1)=C1/C(=O)Nc2cnc(-c3cnccc3C)cc21 [Example 91, (Z)-2-Methyl-2-(4-((1-(5-(4-methylpyridin-3-yl)-2-oxo-1H-pyrrolo[2,3-c]pyridin-3(2H)-ylidene)propyl)amino)-1H-pyrazol-1-yl)propanenitrile] | 79.7% | – | < 50 nM
7 | CC/C(Nc1ccn(C(C)(C)C#N)n1)=C1/C(=O)Nc2cnc(-c3cnccc3C)cc21 [Example 92, (Z)-2-Methyl-2-(3-((1-(5-(4-methylpyridin-3-yl)-2-oxo-1H-pyrrolo[2,3-c]pyridin-3(2H)-ylidene)propyl)amino)-1H-pyrazol-1-yl)propanenitrile] | 77% | 80.3% | < 50 nM
8 | COc1cccc(F)c1-c1cc2c(cn1)NC(=O)/C2=C(/C)Nc1ccn(C(C)(C)C#N)n1 [Example 93, (Z)-2-(3-((1-(5-(2-Fluoro-6-methoxyphenyl)-2-oxo-1H-pyrrolo[2,3-c]pyridin-3(2H)-ylidene)ethyl)amino)-1H-pyrazol-1-yl)-2-methylpropanenitrile] | 73.8% | 76.4% | < 50 nM
9 | CCS(=O)(=O)n1ccc(N/C(C)=C2\C(=O)Nc3cnc(-c4cnccc4C)cc32)n1 [Example 94, (Z)-3-(1-((1-(Ethylsulfonyl)-1H-pyrazol-3-yl)amino)ethylidene)-5-(4-methylpyridin-3-yl)-1H-pyrrolo[2,3-c]pyridin-2(3H)-one] | 66.8% | 75.4% | < 50 nM
10 | COc1ccncc1-c1cc2c(cn1)NC(=O)/C2=C(/C)Nc1ccn(C(C)(C)C#N)n1 [Example 95, (Z)-2-(3-((1-(5-(4-Methoxypyridin-3-yl)-2-oxo-1H-pyrrolo[2,3-c]pyridin-3(2H)-ylidene)ethyl)amino)-1H-pyrazol-1-yl)-2-methylpropanenitrile] | 75.5% | 75.7% | < 50 nM
11 | C/C(Nc1ccc(N2CCN(C3CC3)CC2)nc1)=C1/C(=O)Nc2cnc(-c3cnccc3C)cc21 [Example 96, (Z)-3-(1-((6-(4-Cyclopropylpiperazin-1-yl)pyridin-3-yl)amino)ethylidene)-5-(4-methylpyridin-3-yl)-1H-pyrrolo[2,3-c]pyridin-2(3H)-one] | 68.6% | 73.5% | < 50 nM
12 | C/C(Nc1ccn(C(C)(C)C(N)=O)n1)=C1/C(=O)Nc2cnc(-c3cnccc3C)cc21 [Example 97, (Z)-2-Methyl-2-(3-((1-(5-(4-methylpyridin-3-yl)-2-oxo-1H-pyrrolo[2,3-c]pyridin-3(2H)-ylidene)ethyl)amino)-1H-pyrazol-1-yl)propanamide] | 59% | 59.9% | 100 to 500 nM
13 | C/C(Nc1ccn(C(C)(C)C#N)n1)=C1/C(=O)Nc2cnc(-c3ccccc3C)cc21 [Example 98, (Z)-2-Methyl-2-(3-((1-(2-oxo-5-(o-tolyl)-1H-pyrrolo[2,3-c]pyridin-3(2H)-ylidene)ethyl)amino)-1H-pyrazol-1-yl)propanenitrile] | 61% | 69% | 50 to 100 nM
14 | C/C(Nc1ccn(C(C)C)n1)=C1/C(=O)Nc2cnc(-c3cnccc3C)cc21 [Example 99, (Z)-3-(1-((1-Isopropyl-1H-pyrazol-3-yl)amino)ethylidene)-5-(4-methylpyridin-3-yl)-1H-pyrrolo[2,3-c]pyridin-2(3H)-one] | 70.1% | 78.6% | 50 to 100 nM
15 | C/C(Nc1ccn(C)n1)=C1/C(=O)Nc2ccc(-c3cnccc3C)cc21 [Example 100, (Z)-3-(1-((1-Methyl-1H-pyrazol-3-yl)amino)ethylidene)-5-(4-methylpyridin-3-yl)indolin-2-one] | 72.8% | 77% | < 50 nM
16 | C/C(Nc1ccn(CCN2CCOCC2)n1)=C1/C(=O)Nc2cnc(-c3cnccc3C)cc21 [Example 101, (Z)-5-(4-Methylpyridin-3-yl)-3-(1-((1-(2-morpholinoethyl)-1H-pyrazol-3-yl)amino)ethylidene)-1H-pyrrolo[2,3-c]pyridin-2(3H)-one] | 68% | 81.8% | < 50 nM
17 | C/C(Nc1ccn(C2(C#N)CC2)n1)=C1/C(=O)Nc2cnc(-c3cnccc3C)cc21 [Example 102, (Z)-1-(3-((1-(5-(4-Methylpyridin-3-yl)-2-oxo-1H-pyrrolo[2,3-c]pyridin-3(2H)-ylidene)ethyl)amino)-1H-pyrazol-1-yl)cyclopropanecarbonitrile] | 81.6% | 89.7% | < 50 nM
18 | C/C(Nc1ccn(CC2CC2)n1)=C1/C(=O)Nc2cnc(-c3cnccc3C)cc21 [Example 103, (Z)-3-(1-((1-(Cyclopropylmethyl)-1H-pyrazol-3-yl)amino)ethylidene)-5-(4-methylpyridin-3-yl)-1H-pyrrolo[2,3-c]pyridin-2(3H)-one] | 74.5% | 83.4% | < 50 nM
19 | C/C(Nc1ccn(CC(C)(C)O)n1)=C1/C(=O)Nc2cnc(-c3cnccc3C)cc21 [Example 104, (Z)-3-(1-((1-(2-Hydroxy-2-methylpropyl)-1H-pyrazol-3-yl)amino)ethylidene)-5-(4-methylpyridin-3-yl)-1H-pyrrolo[2,3-c]pyridin-2(3H)-one] | 74.6% | 79.8% | < 50 nM
20 | C/C(Nc1cnn(C(C)(C)C#N)c1)=C1/C(=O)Nc2ccc(-c3cnccc3C)nc21 [Example 105, (Z)-2-Methyl-2-(4-((1-(5-(4-methylpyridin-3-yl)-2-oxo-1H-pyrrolo[3,2-b]pyridin-3(2H)-ylidene)ethyl)amino)-1H-pyrazol-1-yl)propanenitrile] | 79.8% | 84.4% | < 50 nM
21 | C/C(Nc1ccn(C(C)(C)C#N)n1)=C1/C(=O)Nc2cnc(-c3cncc(N)c3C)cc21 [Example 106, (Z)-2-(3-((1-(5-(5-Amino-4-methylpyridin-3-yl)-2-oxo-1H-pyrrolo[2,3-c]pyridin-3(2H)-ylidene)ethyl)amino)-1H-pyrazol-1-yl)-2-methylpropanenitrile] | 80% | 92.4% | < 50 nM
22 | C/C(Nc1ccc(N2CCOCC2)cn1)=C1/C(=O)Nc2cnc(-c3cnccc3C)cc21 [Example 107, (Z)-5-(4-Methylpyridin-3-yl)-3-(1-((5-morpholinopyridin-2-yl)amino)ethylidene)-1H-pyrrolo[2,3-c]pyridin-2(3H)-one] | 72.3% | 80% | < 50 nM
23 | COc1cccc(F)c1-c1cc2c(cn1)NC(=O)/C2=C(/C)Nc1ccc(N2CCNCC2)cc1 [Example 108, (Z)-5-(2-Fluoro-6-methoxyphenyl)-3-(1-((4-(piperazin-1-yl)phenyl)amino)ethylidene)-1H-pyrrolo[2,3-c]pyridin-2(3H)-one] | 74.2% | 77% | < 50 nM
24 | C/C(Nc1ccc(N(C)C)nc1)=C1/C(=O)Nc2cnc(-c3cnccc3C)cc21 [Example 109, (Z)-3-(1-((6-(Dimethylamino)pyridin-3-yl)amino)ethylidene)-5-(4-methylpyridin-3-yl)-1H-pyrrolo[2,3-c]pyridin-2(3H)-one] | 72.4% | 83.4% | < 50 nM
25 | C/C(Nc1ccn(CCC(C)(C)O)n1)=C1/C(=O)Nc2cnc(-c3cnccc3C)cc21 [Example 111] | 74.4% | 74.3% | < 50 nM
26 | CNC(=O)Cn1ccc(N/C(C)=C2\C(=O)Nc3cnc(-c4cnccc4C)cc32)n1 [Example 114] | 73.3% | 75.9% | < 50 nM
